Assay: method code SF-AS, from DOI: 10.1002/zfch.19810210618

Structure (SMILES)	logP
Cc1ccc(NC(=O)NN)cc1	0.69
COc1ccc(NC(=O)NN)cc1	0.17
NNC(=O)Nc1ccc(I)cc1	1.24
NNC(=O)Nc1cccc([N+](=O)[O-])c1	-0.13
COc1cccc(NC(=O)NN)c1	0.17
NNC(=O)Nc1ccc(O)cc1	-0.55
NNC(=O)Nc1ccc(Br)cc1	1
NNC(=O)Nc1ccc([N+](=O)[O-])cc1	-0.18
NNC(=O)Nc1cccc(C(=O)O)c1	-0.16
NNC(=O)Nc1ccc(C(=O)O)cc1	-0.21
NNC(=O)Nc1cccc(O)c1	-0.5
CCOc1ccc(NC(=O)NN)cc1	0.53
NNC(=O)Nc1cccc(Br)c1	0.96
NNC(=O)Nc1ccc(Cl)cc1	0.87
Cc1cccc(NC(=O)NN)c1	0.68

Next, values leading:

logP	Structure (SMILES)
0.83	NNC(=O)Nc1cccc(Cl)c1
-0.47	NNC(=O)Nc1ccccc1[N+](=O)[O-]
0.16	NNC(=O)Nc1ccccc1
1.07	NNC(=O)Nc1cc(Cl)ccc1Cl
0.9	NNC(=O)Nc1cccc2ccccc12
0.36	Cc1ccccc1NC(=O)NN
-0.49	NNC(=O)Nc1ccccc1C(=O)O
0.33	NNC(=O)Nc1ccccc1O
0.45	NNC(=O)Nc1ccccc1Cl
0.66	NNC(=O)Nc1ccccc1Br
-0.15	COc1ccccc1NC(=O)NN

— the SangsterLogP compilation
